The values below are quoted from earlier work in patent publication US6720184B1, “Method of altering sphingolipid metabolism and detecting fumonisin ingestion and contamination” (Emory University, priority 1991, dated 2004).

For this data set the following is noted: reference 12; cited from earlier work.

As to `CCCC[C@@H](C)[C@@H](OC(=O)C[C@@H](CC(=O)O)C(=O)O)[C@H](C[C@@H](C)C[C@H](O)CCCC[C@@H](O)C[C@H](O)[C@H](C)N)OC(=O)C[C@@H](CC(=O)O)C(=O)O` [fumonisin B1], the disease caused result was “equine leucoencephalomalacia”.
